{"source": "patent US10590456B2", "about": "“Ribosomes with tethered subunits” (Northwestern University, priority 2014, dated 2020)", "tested_on": "wild-type ribosomes", "experiment": "Antibiotic inhibition of orthogonal sf-gfp translation by wild-type ribosomes in cell-free system", "type": "biochemical, E. coli", "details": "pactamycin 100 μM", "description": "Ribosomes (wild-type) or oRibo-T (mixed with wild-type ribosomes) were prepared from SQ171fg cells transformed with pAM552 or poRibo-T1, respectively. An orthogonal sf-gfp gene was PCR amplified from the plasmid pT7oGFP using primers […] (SEQ ID NO: 227) and […] (SEQ ID NO: 228). The transcription-translation reaction was carried out in Δ(ribosome, amino acid, tRNA) PURExpress system as described above. The 7.5 μl reactions were supplemented with 18.75 ng DNA template and 7.5 pmol ribosomes and when needed, clindamycin or pactamycin were added to the reactions to the final concentrations of 50 μM or 100 μM respectively.", "data": [{"smiles": "CC(=O)c1cccc(N[C@H]2[C@H](N)[C@@](NC(=O)N(C)C)([C@H](C)O)[C@@](C)(O)[C@@]2(O)COC(=O)c2c(C)cccc2O)c1", "note": "[Pactamycin]", "values": [{"measurement": "inhibition of the activity of wild-type ribosomes in the PURE translation system", "result": "completely inhibited"}]}]}
